Results on 33 compounds are retold here after patent publication US20120121540A1 (priority 2007, published 2012).

The inhibition is how much of the control response was suppressed.

The nature of the assay: HCV replicon assay (luciferase reporter, ET cell line). The assay is classed as cell-based. Conditions: Hepatitis C virus, HCV replicon luciferase activity in ET cells. Put shortly: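 EC50 and, via WST-1 cytotoxicity, TC50 were fitted with a Hill-coefficient equation to % inhibition across 10 two-fold dilutions. Compounds at 0.1 nM-[…] with 0.5% DMSO were applied 24 h post-seeding to replicon-bearing ET cells (luc-ubi-neo/NS3-5B, adaptive mutations). Firefly luciferase signal was measured after 48-72 h.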
On the technique in general: In antiviral work, replicon cells carry a viral genome segment that copies itself.
`CCn1c(C(=O)N2CCC(c3ccc(F)cc3)C2)nc2c(C(F)(F)F)cc(-c3ccoc3)cc21` (stereo not drawn) [Compound 352, (1-Ethyl-6-furan-3-yl-4-trifluoromethyl-1H-benzoimidazol-2-yl)-[3-(4-fluoro-phenyl)-pyrrolidin-1-yl]-methanone] came in with an inhibition at 10 µM of 49.8%. `CCn1c(C(=O)N2CCC(c3ccc(F)cc3)C2)nc2cc(-c3ccoc3)cc(C(F)(F)F)c21` (stereo not drawn) [Compound 353, (1-Ethyl-5-furan-3-yl-7-trifluoromethyl-1H-benzoimidazol-2-yl)-[3-(4-fluoro-phenyl)-pyrrolidin-1-yl]-methanone] came in with an inhibition at 10 µM of 3.5%. `CN(C)Cc1cccc(-c2cc(C(F)(F)F)c3nc(C(=O)N4CCC(c5ccc(F)cc5)C4)c(Cl)n3c2)c1` (stereo not drawn) [Compound 354, [3-Chloro-6-(3-dimethylaminomethyl-phenyl)-8-trifluoromethyl-imidazo[1,2-a]pyridin-2-yl]-[3-(4-fluoro-phenyl)-pyrrolidin-1-yl]-methanone]: the inhibition at 10 µM amounted to 97.8%. The compound `O=C(Nc1nc2c(C(F)(F)F)cc(-c3ccoc3)cn2c1Cl)c1cccs1` [Compound 356, Thiophene-2-carboxylic acid (3-chloro-6-furan-3-yl-8-trifluoromethyl-imidazo[1,2-a]pyridin-2-yl)-amide] registered an inhibition at 10 µM of 32.5%.

Compound `C=C(C)c1cc(-c2ccccc2)cn2c(Cl)c(C(=O)NCc3cccs3)nc12` [Compound 358, 3-Chloro-8-isopropenyl-6-phenyl-imidazo [1,2-a]pyridine-2-carboxylic Acid (thiophen-2-ylmethyl)-amide] returned an inhibition at 10 µM of 77.3%. `O=C(NCc1cccs1)c1nc2c(/C=C/c3ccccc3)cc(-c3ccccc3)cn2c1Cl` [Compound 359, 3-Chloro-6-phenyl-8-styryl-imidazo[1,2-a]pyridine-2-carboxylic Acid (thiophen-2-ylmethyl)-amide] showed an inhibition at 10 µM of 100%. `O=C(NCc1cncs1)c1nc2c(C(F)(F)F)cc(-c3ccoc3)cn2c1Cl` [Compound 360, 3-Chloro-6-furan-3-yl-8-trifluoromethyl-imidazo[1,2-a]pyridine-2-carboxylic Acid (thiazol-5-ylmethyl)-amide]: 10 µM produced 85.2% inhibition. With `N#Cc1cc(-c2ccccc2)cn2c(Br)c(C(=O)NCc3cccs3)nc12` [Compound 362, 3-Bromo-8-cyano-6-phenyl-imidazo[1,2-a]pyridine-2-carboxylic Acid (thiophen-2-ylmethyl)amide] the figure was 86.9%; with `O=S(=O)(Cc1ccccc1)Nc1nc2c(C(F)(F)F)cc(-c3ccco3)cn2c1Cl` [Compound 363, N-(3-Chloro-6-furan-2-yl-8-trifluoromethyl-imidazo[1,2-a]pyridin-2-yl)-C-phenyl-methanesulfonamide], 12.6%; with `O=C(NCc1cccs1)c1nc2c(C(F)(F)F)cc(-c3cccc(F)c3)cn2c1CN1CCOCC1` [Compound 364, 6-(3-Fluoro-phenyl)-3-morpholin-4-ylmethyl-8-trifluoromethyl-imidazo[1,2-a]pyridine-2-carboxylic Acid (thiophen-2-ylmethyl)-amide], 5.3%. `CN(C)Cc1c(C(=O)NCc2cccs2)nc2c(C(F)(F)F)cc(-c3cccc(F)c3)cn12` [Compound 365, 3-Dimethylaminomethyl-6-(3-fluoro-phenyl)-8-trifluoromethyl-imidazo[1,2-a]pyridine-2-carboxylic Acid (thiophen-2-ylmethyl)-amide] displayed an inhibition at 10 µM of 4.4%. In turn, `O=C(NCc1cccs1)c1nc2c(C(F)(F)F)cc(-c3cccc(F)c3)cn2c1Br` [Compound 367, 3-bromo-6-(3-fluoro-phenyl)-8-trifluoromethyl-imidazo[1,2-a]pyridine-2-carboxylic acid (thiophen-2-ylmethyl)-amide] yielded an inhibition at 10 µM of 96.2%.

The compound `O=C(c1nc2c(C(F)(F)F)cc(-c3cccc(F)c3)cn2c1Br)N1CCC(c2ccccc2)C1` (stereo not drawn) [Compound 368, [3-Bromo-6-(3-fluoro-phenyl)-8-trifluoromethyl-imidazo[1,2-a]pyridin-2-yl]-(3-phenyl-pyrrolidin-1-yl)-methanone] showed an inhibition at 10 µM of 92.2%. In the case of `O=C(NCc1cccs1)c1nc2c(Cl)cc(-c3ccccc3)cn2c1Br` [Compound 369, 3-Bromo-8-chloro-6-phenyl-imidazo[1,2-a]pyridine-2-carboxylic Acid (thiophen-2-ylmethyl)-amide], 10 µM produced 88% inhibition.

Compound `O=C(NCc1cccs1)c1nc2c(Cl)cc(-c3ccccc3)cn2c1Cl` [Compound 370, 3,8-Dichloro-6-phenyl-imidazo[1,2-a]pyridine-2-carboxylic Acid (thiophen-2-ylmethyl)-amide] came in with an inhibition at 10 µM of 80.4%. With `O=C(NCc1cccs1)c1nc2c(Br)cc(-c3ccccc3)cn2c1Cl` [Compound 371, 8-Bromo-3-chloro-6-phenyl-imidazo[1,2-a]pyridine-2-carboxylic Acid (thiophen-2-ylmethyl)-amide] the figure was 78.6%; with `O=C(NCc1cccs1)c1nc2c(-c3ncon3)cc(-c3ccoc3)cn2c1Cl` [Compound 374, 3-Chloro-6-furan-3-yl-8-[1,2,4]oxadiazol-3-yl-imidazo[1,2-a]pyridine-2-carboxylic Acid (thiophen-2-ylmethyl)-amide], 28.6%.

With `CCCCCc1nc(-c2cc(-c3ccoc3)cn3c(Cl)c(C(=O)NCc4cccs4)nc23)no1` [Compound 375, 3-Chloro-6-furan-3-yl-8-(5-pentyl-[1,2,4]oxadiazol-3-yl)-imidazo[1,2-a]pyridine-2-carboxylic Acid (thiophen-2-ylmethyl)-amide], the inhibition at 10 µM is 35.4%. Compound `O=C(NCc1cccs1)c1nc2c(C(F)(F)F)cc(-c3cn[nH]c3)cn2c1Br` [Compound 376, 3-Bromo-6-(1H-pyrazol-4-yl)-8-trifluoromethyl-imidazo[1,2-a]pyridine-2-carboxylic Acid(thiophen-2-ylmethyl)-amide] yielded an inhibition at 10 µM of 98.8%.

Compound `O=C(c1cn2cc(-c3cn[nH]c3)cc(C(F)(F)F)c2n1)N1CCC(c2ccccc2F)C1` (stereo not drawn) [Compound 377, [3-(2-Fluoro-phenyl)-pyrrolidin-1-yl]-[6-(1H-pyrazol-4-yl)-8-trifluoromethyl-imidazo[1,2-a]pyridin-2-yl]-methanone] displayed an inhibition at 10 µM of 94.2%. The compound `O=C(c1cn2cc(-c3cn[nH]c3)cc(C(F)(F)F)c2n1)N1CCC(c2cccc(F)c2)C1` (stereo not drawn) [Compound 378, [3-(3-Fluoro-phenyl)-pyrrolidin-1-yl]-[6-(1H-pyrazol-4-yl)-8-trifluoromethyl-imidazo[1,2-a]pyridin-2-yl]-methanone] yielded an inhibition at 10 µM of 86.4%. Turning to `N#Cc1cc(-c2cn[nH]c2)cn2c(Cl)c(C(=O)NCc3cccs3)nc12` [Compound 379, 3-Chloro-8-cyano-6-(1H-pyrazol-4-yl)-imidazo[1,2-a]pyridine-2-carboxylic Acid (thiophen-2-ylmethyl)-amide], testing at 10 µM gave an inhibition of 80.8%. In turn, `O=C(c1nc2c(C(F)(F)F)cc(-c3ccco3)cn2c1Cl)N1CCc2ccccc21` [Compound 380, (3-Chloro-6-furan-2-yl-8-trifluoromethyl-imidazo[1,2-a]pyridin-2-yl)-(2,3-dihydro-indol-1-yl)-methanone] displayed an inhibition at 10 µM of 20.2%. `O=C(c1nc2c(C(F)(F)F)cc(-c3ccoc3)cn2c1Cl)N1CCC(N2CCOCC2)C1` (stereo not drawn) [Compound 381, (3-Chloro-6-furan-3-yl-8-trifluoromethyl-imidazo[1,2-a]pyridin-2-yl)-(3-morpholin-4-yl-pyrrolidin-1-yl)-methanone] returned an inhibition at 10 µM of 37.9%. `[H]/N=C(/NCc1cccs1)c1nc2c(C(F)(F)F)cc(-c3ccoc3)cn2c1Cl` [Compound 382, 3-Chloro-6-furan-3-yl-N-thiophen-2-ylmethyl-8-trifluoromethyl-imidazo[1,2-a]pyridine-2-carboxamidine] displayed an inhibition at 10 µM of 65.4%. Compound `O=C(Cc1cccs1)NCc1cn2cc(-c3ccoc3)cc(C(F)(F)F)c2n1` [Compound 388, N-(6-Furan-3-yl-8-trifluoromethyl-imidazo[1,2-a]pyridin-2-ylmethyl)-2-thiophen-2-yl-acetamide] displayed an inhibition at 10 µM of 97.2%. To `O=C(Cc1ccccc1)NCc1nc2c(C(F)(F)F)cc(-c3ccoc3)cn2c1Cl` [Compound 389, N-(3-Chloro-6-furan-3-yl-8-trifluoromethyl-imidazo[1,2-a]pyridin-2-ylmethyl)-2-phenyl-acetamide] belongs 45.3%. Take `O=C(Cc1ccccc1)NCc1cn2cc(-c3ccoc3)cc(C(F)(F)F)c2n1` [Compound 390, N-(6-Furan-3-yl-8-trifluoromethyl-imidazo[1,2-a]pyridin-2-ylmethyl)-2-phenyl-acetamide]: the inhibition at 10 µM came to 95.8%. With `O=C(NCc1ccccc1)NCc1cn2cc(-c3ccoc3)cc(C(F)(F)F)c2n1` [Compound 391, 1-Benzyl-3-(6-furan-3-yl-8-trifluoromethyl-imidazo[1,2-a]pyridin-2-ylmethyl)-urea], testing at 10 µM gave an inhibition of 99.9%.

For `O=C(NCc1cn2cc(-c3ccoc3)cc(C(F)(F)F)c2n1)OCc1ccccc1` [Compound 393, (6-Furan-3-yl-8-trifluoromethyl-imidazo[1,2-a]pyridine-2-ylmethyl)-carbamic Acid Benzyl Ester], 10 µM produced 0.5% inhibition.

`O=S(=O)(NCc1cn2cc(-c3ccoc3)cc(C(F)(F)F)c2n1)c1ccccc1` [Compound 395] showed an inhibition at 10 µM of 90.4%. To `O=S(=O)(Cc1ccccc1)NCc1cn2cc(-c3ccoc3)cc(C(F)(F)F)c2n1` [Compound 396] belongs 94.2%; to `O=C(NCc1ccc(F)cc1)NCc1cn2cc(-c3ccoc3)cc(C(F)(F)F)c2n1` [Compound 397, 1-(4-Fluoro-benzyl)-3-(6-furan-3-yl-8-trifluoromethyl-imidazo[1,2-a]pyridine-2-ylmethyl)-urea], 21.9%.
